“Also recorded” adds a separate entry of the source. Where two headings read alike, the source gives them in different places.
Legend:
Influenza virus = assay type: cell-based, influenza A virus NL09 strain; settings: for first experiment PFU/ml: 0.1% DMSO control 100000; for Antiviral activity against Influenza virus / Flu titer (pfu/ml): A549 cells; for Antiviral activity against Influenza virus: screening at 50 μM, 10 μM (and 1 μM); for IC50: read-out: IC50 against IAV; for Flu titer (pfu/ml): plaque assay
IAV = experiment: Time of addition assay, IAV in A549 cells, plaque assay; assay type: cell-based, influenza A virus
Huh7 cells = settings: 24 h, CellTiter-Glo
[1] = system: Marburg virus Angola strain (MARV); assay type: cell-based; settings: Huh7 cells, 48 h; read-out: IC50 against MARV
IAV NS1 mRNA = assay type: cell-based, influenza A virus
[2] = system: Ebola virus Makona strain (EBOV); assay type: cell-based; settings: Huh7 cells, 48 h; read-out: IC50 against EBOV
A549 cells = settings: 24 h, CellTiter-Glo
IAV NS1 = assay type: cell-based, influenza A virus
MERS-CoV = assay type: cell-based, MERS-CoV (Jordan strain); settings: Huh7 cells, MOI 0.1, 24 h; read-out: IC50 against MERS-CoV
SARS-CoV-2 mRNA = assay type: cell-based; settings: two gene targets (N, RdRp)
SARS-CoV = assay type: cell-based; settings: 24 h
IAV RNA = experiment: Multi-segment RT-PCR (M-RTPCR) of all IAV segments; assay type: cell-based, influenza A virus
SARS-CoV-2 = assay type: cell-based
[3] = 10 μM compound, DMSO (0.1%) control 153000
[4] = 50 μM compound, DMSO (0.5%) control 58700
[5] = 1 μm compound, DMSO (0.1%) control 153000

COc1ccc(CNCCCSC)c(OCC(O)CN2CCN(C)CC2)c1 (centres unmarked) [18-16]
first experiment PFU/ml (Influenza virus; 10 μM screen): 210000 PFU/ml

COc1ccc(CNCC(F)(F)F)c(OCC(O)CN2CCN(C)CC2)c1 (centres unmarked) [18-12]
first experiment PFU/ml (Influenza virus; 10 μM screen): 30000 PFU/ml

COc1ccc(CNCCc2ccccc2F)c(OCC(O)CN2CCN(C)CC2)c1 (centres unmarked) [UMB18]
Inhibition of IAV, drug added 2 h after infection (+2 h) (IAV): marked reduction in the level of inhibition
Cell cytotoxicity at antiviral concentrations (Huh7 cells): minimal toxicity
IC50 [1]: ~16 µM
Antiviral activity against Influenza virus (Influenza virus): antiviral activity against influenza
IC50 (Influenza virus): ~5 µM
NS1 mRNA (IAV NS1 mRNA): marked reduction in mRNA
IC50 [2]: ~5 µM
Cell cytotoxicity at antiviral concentrations (A549 cells): minimal toxicity
NS1 protein (IAV NS1): lack of NS1 protein
IC50 (MERS-CoV): ~5 µM

COc1ccc(CNCCCSC)c(OCC(O)CN2CCCCCCC2)c1 (centres unmarked) [18-14]
first experiment PFU/ml (Influenza virus; 10 μM screen): 44000 PFU/ml

COc1ccc(CNCCc2cccnc2)c(OCC(O)CN2CCCCCCC2)c1 (centres unmarked) [18-9]
first experiment PFU/ml (Influenza virus; 10 μM screen): 200000 PFU/ml

COc1ccc(CNCCc2ccccc2F)c(OCC(O)CN2CCN(C)CC2)c1 (centres unmarked) [18-lead, 1-[2-({[2-(2-fluorophenyl)ethyl]amino}methyl)-5-methoxyphenoxy]-3-(4-methyl-1-piperazinyl)-2-propanol]
first experiment PFU/ml (Influenza virus; 10 μM screen): 2000 PFU/ml
1-24-20 (triplicate wells) PFU/ml (Influenza virus; 10 μM screen, well 1, 0.1% DMSO control 23000): 1300 PFU/ml
1-24-20 (triplicate wells) PFU/ml (Influenza virus; 10 μM screen, well 2, 0.1% DMSO control 19000): 1000 PFU/ml
1-24-20 (triplicate wells) PFU/ml (Influenza virus; 10 μM screen, well 3, 0.1% DMSO control 29000): 4000 PFU/ml
1-24-20 (triplicate wells) PFU/ml (Influenza virus; 50 μM screen, well 1, 0.5% DMSO control 21000): 600 PFU/ml
1-24-20 (triplicate wells) PFU/ml (Influenza virus; 50 μM screen, well 2, 0.5% DMSO control 5300): 200 PFU/ml
1-24-20 (triplicate wells) PFU/ml (Influenza virus; 50 μM screen, well 3, 0.5% DMSO control 15000): 300 PFU/ml

COc1ccc(CNCCc2ccccc2Cl)c(OCC(O)CN2CCN(C)CC2)c1 (centres unmarked) [18-4]
first experiment PFU/ml (Influenza virus; 10 μM screen): 7000 PFU/ml

COc1ccc(CNCCCn2cccn2)c(OCC(O)CN2CCN(C)CC2)c1 (centres unmarked) [18-13]
first experiment PFU/ml (Influenza virus; 10 μM screen): 40000 PFU/ml

COc1ccc(CNCCCn2ccnc2)c(OCC(O)CN2CCN(C)CC2)c1 (centres unmarked) [18-15]
Influenza virus plaque assay titer, 10 μM (Influenza virus; compound at 10 μM, DMSO control 100000): 36000 PFU/virus/ml

COc1ccc(CNC2CCCCC2)c(OCC(O)CN2CCN(C)CC2)c1 (centres unmarked) [18-10]
first experiment PFU/ml (Influenza virus; 10 μM screen): 40000 PFU/ml

COc1ccc(OC)c(Cc2nnc(CCC(=O)NC3CC(C)(C)CC(C)(C)C3)o2)c1 [compound 35434810, 3-4[5-(2,5-dimethoxybenzyl)-1,3,4-oxadiazol-2-yl]-N-(3,3,5,5-tetramethylcyclohexyl)propanamide]
Flu titer (pfu/ml) (Influenza virus; [3]): 80000 pfu/ml
Flu titer (pfu/ml) (Influenza virus; [4]): 130000 pfu/ml
Flu titer (pfu/ml) (Influenza virus; [5]): 80000 pfu/ml

COc1ccc(CNCC2CCCCC2)c(OCC(O)CN2CCN(C)CC2)c1 (centres unmarked) [18-5]
first experiment PFU/ml (Influenza virus; 10 μM screen): 60000 PFU/ml

COc1ccc(CNCCc2ccccc2C)c(OCC(O)CN2CCN(C)CC2)c1 (centres unmarked) [UMB18-2]
Inhibition of IAV, drug added 2 h after infection (+2 h) (IAV): marked reduction in the level of inhibition
SARS-CoV-2 mRNA production (SARS-CoV-2 mRNA): capable of inhibiting SARS-CoV-2 mRNA production
Inhibition of SARS-CoV virus production (SARS-CoV; 10 μM): inhibition, but to a lesser extent
Reduction in SARS-CoV virus production (SARS-CoV; 50 μM): 1 log
IAV RNA amplified by M-RTPCR (IAV RNA): total loss of IAV RNA
IC50 (Influenza virus): ~5 µM
NS1 mRNA (IAV NS1 mRNA): marked reduction in mRNA
NS1 protein (IAV NS1): lack of NS1 protein
Inhibition of SARS-CoV-2 virus production (TCID50) (SARS-CoV-2): capable of inhibiting virus production; also recorded: less so
IC50 (MERS-CoV): ~5 µM

COc1ccc(CNCCc2ccccc2)c(OCC(O)CN2CCN(C)CC2)c1 (centres unmarked) [18-6]
first experiment PFU/ml (Influenza virus; 10 μM screen): 10000 PFU/ml

OCCN(Cc1nc(Cc2cccc(C(F)(F)F)c2)no1)CC12CC3CC(CC(C3)C1)C2 [compound 61121342]
Flu titer (pfu/ml) (Influenza virus; [3]): 130000 pfu/ml
Flu titer (pfu/ml) (Influenza virus; [4]): 50000 pfu/ml
Flu titer (pfu/ml) (Influenza virus; [5]): 9000 pfu/ml

COc1ccc(CNCCCn2ccnc2C)c(OCC(O)CN2CCN(C)CC2)c1 (centres unmarked) [18-7]
first experiment PFU/ml (Influenza virus; 10 μM screen): 240000 PFU/ml

COc1ccc(CNC2CCCCCCC2)c(OCC(O)CN2CCN(C)CC2)c1 (centres unmarked) [18-8]
first experiment PFU/ml (Influenza virus; 10 μM screen): 3000 PFU/ml

COCCCNCc1ccc(OC)cc1OCC(O)CN1CCN(C)CC1 (centres unmarked) [18-11]
first experiment PFU/ml (Influenza virus; 10 μM screen): 100000 PFU/ml

COc1ccc(CNC2CCCC2)c(OCC(O)CN2CCN(C)CC2)c1 (centres unmarked) [18-1]
first experiment PFU/ml (Influenza virus; 10 μM screen): 60000 PFU/ml

COc1ccc(CNC2Cc3ccccc3C2)c(OCC(O)CN2CCN(C)CC2)c1 (centres unmarked) [18-3]
first experiment PFU/ml (Influenza virus; 10 μM screen): 12000 PFU/ml

COc1ccc(CNCCc2ccccc2C)c(OCC(O)CN2CCN(C)CC2)c1 (centres unmarked) [18-2]
first experiment PFU/ml (Influenza virus; 10 μM screen): 500 PFU/ml
Antiviral activity against Influenza virus (Influenza virus; listed as 27092311): increased activity

Source: patent US20220259180A1, “BROAD SPECTRUM ANTIVIRAL COMPOUNDS TARGETING THE SKI COMPLEX” (priority 2019, published 2022)
